# Measured values from ChEMBL document CHEMBL1201862, “PubChem BioAssay data set” (2004).
# The source made the active and inactive calls.
# Assays:
# [1] = target: RAC-gamma serine/threonine-protein kinase (Homo sapiens, UniProt Q9Y243); assay type: functional
# [2] = target: Ribosomal protein S6 kinase beta-1 (Homo sapiens, UniProt P23443); assay type: functional;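 further: measured as one member of a kinome-wide profiling panel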
# [3] = target: Tyrosine-protein kinase SYK (Homo sapiens, UniProt P43405); assay type: functional
# [4] = target: SRSF protein kinase 1 (Homo sapiens, UniProt Q96SB4); assay type: functional;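 further: measured as one member of a kinome-wide kinase profiling panel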
# [5] = target: Mast/stem cell growth factor receptor Kit (Homo sapiens, UniProt P10721); assay type: functional;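 further: KIT entry within a kinase panel assay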
# [6] = target: Casein kinase II subunit alpha (Homo sapiens, UniProt P68400); assay type: functional
# [7] = target: Testis-specific serine/threonine-protein kinase 1 (Homo sapiens, UniProt Q9BXA7); assay type: functional
# Sequence of Testis-specific serine/threonine-protein kinase 1 (Q9BXA7 whole entry): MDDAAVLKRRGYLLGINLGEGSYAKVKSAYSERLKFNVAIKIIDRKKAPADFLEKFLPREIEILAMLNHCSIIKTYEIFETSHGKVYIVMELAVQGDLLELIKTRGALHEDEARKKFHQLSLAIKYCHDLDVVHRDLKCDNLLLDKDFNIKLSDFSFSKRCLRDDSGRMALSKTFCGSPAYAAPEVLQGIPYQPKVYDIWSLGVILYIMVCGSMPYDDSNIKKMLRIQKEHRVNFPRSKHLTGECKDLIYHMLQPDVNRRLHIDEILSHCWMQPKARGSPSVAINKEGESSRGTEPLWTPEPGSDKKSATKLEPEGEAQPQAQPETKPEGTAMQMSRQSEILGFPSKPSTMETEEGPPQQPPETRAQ
# [8] = target: Homeodomain-interacting protein kinase 2 (Homo sapiens, UniProt Q9H2X6); assay type: functional;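 further: measured within a kinome-wide kinase profiling panel, HIPK2 being one panel member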
# Sequence of Homeodomain-interacting protein kinase 2 (Q9H2X6 whole entry): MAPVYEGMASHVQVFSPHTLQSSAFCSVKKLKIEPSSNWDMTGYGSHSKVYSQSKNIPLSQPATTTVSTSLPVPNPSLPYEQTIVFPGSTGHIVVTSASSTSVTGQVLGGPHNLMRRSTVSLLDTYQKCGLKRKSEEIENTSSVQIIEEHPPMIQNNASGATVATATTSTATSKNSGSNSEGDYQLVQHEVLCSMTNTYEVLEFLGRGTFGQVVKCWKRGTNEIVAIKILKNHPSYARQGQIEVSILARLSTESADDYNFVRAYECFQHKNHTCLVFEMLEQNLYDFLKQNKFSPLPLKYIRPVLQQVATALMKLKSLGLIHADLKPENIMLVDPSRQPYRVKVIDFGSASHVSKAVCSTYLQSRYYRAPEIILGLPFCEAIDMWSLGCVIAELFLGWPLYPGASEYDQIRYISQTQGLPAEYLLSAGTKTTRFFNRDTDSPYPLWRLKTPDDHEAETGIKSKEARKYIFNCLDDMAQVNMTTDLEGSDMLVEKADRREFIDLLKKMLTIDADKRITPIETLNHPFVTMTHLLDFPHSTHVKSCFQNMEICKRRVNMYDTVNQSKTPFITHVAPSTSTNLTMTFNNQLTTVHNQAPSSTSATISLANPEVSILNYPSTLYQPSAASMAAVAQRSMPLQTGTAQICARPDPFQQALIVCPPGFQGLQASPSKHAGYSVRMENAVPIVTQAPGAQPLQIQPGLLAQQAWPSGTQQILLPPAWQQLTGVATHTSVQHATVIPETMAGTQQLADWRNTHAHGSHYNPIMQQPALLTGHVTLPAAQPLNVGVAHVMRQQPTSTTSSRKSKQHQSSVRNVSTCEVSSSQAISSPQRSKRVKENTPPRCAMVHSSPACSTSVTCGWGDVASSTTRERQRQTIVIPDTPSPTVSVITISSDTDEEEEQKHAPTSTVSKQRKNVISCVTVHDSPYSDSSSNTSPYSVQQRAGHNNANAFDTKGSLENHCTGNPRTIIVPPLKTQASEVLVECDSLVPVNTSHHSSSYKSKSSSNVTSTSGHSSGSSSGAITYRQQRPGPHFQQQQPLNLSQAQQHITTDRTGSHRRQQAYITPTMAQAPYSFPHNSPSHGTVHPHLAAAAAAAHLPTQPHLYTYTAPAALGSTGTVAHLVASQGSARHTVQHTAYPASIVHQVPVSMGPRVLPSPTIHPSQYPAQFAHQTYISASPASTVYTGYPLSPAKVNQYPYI
# [9] = target: Serine/threonine-protein kinase pim-3 (Homo sapiens, UniProt Q86V86); assay type: functional;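 further: value obtained as one member of a broad kinase panel profiling effort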
# [10] = target: Dual specificity tyrosine-phosphorylation-regulated kinase 3 (Homo sapiens, UniProt O43781); assay type: functional;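 further: measured as one member of a broad kinase panel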
# [11] = target: RAC-alpha serine/threonine-protein kinase (Homo sapiens, UniProt P31749); assay type: functional;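 further: AKT1 affinity measured as one member of a kinome-wide kinase profiling panel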
# Sequence of RAC-alpha serine/threonine-protein kinase (P31749 whole entry): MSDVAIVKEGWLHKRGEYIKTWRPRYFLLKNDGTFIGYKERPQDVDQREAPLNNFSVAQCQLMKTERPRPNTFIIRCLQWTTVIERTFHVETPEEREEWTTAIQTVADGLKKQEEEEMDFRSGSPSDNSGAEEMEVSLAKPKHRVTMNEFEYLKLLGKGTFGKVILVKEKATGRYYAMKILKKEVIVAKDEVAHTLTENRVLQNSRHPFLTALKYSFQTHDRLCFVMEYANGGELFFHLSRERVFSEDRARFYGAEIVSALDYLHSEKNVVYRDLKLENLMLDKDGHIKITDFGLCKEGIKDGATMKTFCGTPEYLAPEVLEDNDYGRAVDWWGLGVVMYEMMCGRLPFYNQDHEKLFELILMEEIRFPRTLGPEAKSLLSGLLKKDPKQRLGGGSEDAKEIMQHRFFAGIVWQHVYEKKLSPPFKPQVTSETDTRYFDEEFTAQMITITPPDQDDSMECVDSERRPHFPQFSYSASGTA
# [12] = target: Serine/threonine-protein kinase pim-2 (Homo sapiens, UniProt Q9P1W9); assay type: functional;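 further: value comes from a broad kinase panel profiling study in which PIM2 was one of the panel members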
# Sequence of Serine/threonine-protein kinase pim-2 (Q9P1W9 whole entry): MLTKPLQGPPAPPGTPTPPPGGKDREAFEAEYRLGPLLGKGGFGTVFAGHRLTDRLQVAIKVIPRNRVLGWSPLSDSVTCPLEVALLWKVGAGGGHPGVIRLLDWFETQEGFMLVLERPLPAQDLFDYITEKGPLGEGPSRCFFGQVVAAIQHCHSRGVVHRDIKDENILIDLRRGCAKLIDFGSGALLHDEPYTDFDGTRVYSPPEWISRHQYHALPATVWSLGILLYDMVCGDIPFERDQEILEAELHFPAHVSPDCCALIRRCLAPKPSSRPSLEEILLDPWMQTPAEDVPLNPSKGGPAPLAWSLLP
# [13] = target: Serine/threonine-protein kinase Nek2 (Homo sapiens, UniProt P51955); assay type: functional
# Sequence of Serine/threonine-protein kinase Nek2 (P51955 whole entry): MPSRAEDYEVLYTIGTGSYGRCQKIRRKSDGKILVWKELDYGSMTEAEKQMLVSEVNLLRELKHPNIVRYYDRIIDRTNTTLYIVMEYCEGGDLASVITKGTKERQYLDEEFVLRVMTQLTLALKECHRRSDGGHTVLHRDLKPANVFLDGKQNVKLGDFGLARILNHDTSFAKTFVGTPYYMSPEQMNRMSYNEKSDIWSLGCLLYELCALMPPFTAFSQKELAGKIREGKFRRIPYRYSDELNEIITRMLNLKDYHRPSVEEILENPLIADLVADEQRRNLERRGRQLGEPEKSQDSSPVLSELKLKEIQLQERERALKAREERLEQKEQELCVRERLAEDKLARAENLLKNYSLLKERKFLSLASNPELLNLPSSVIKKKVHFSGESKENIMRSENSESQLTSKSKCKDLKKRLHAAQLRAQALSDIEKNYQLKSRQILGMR
# [14] = target: Serine/threonine-protein kinase BRSK1 (Homo sapiens, UniProt Q8TDC3); assay type: functional;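 further: measured within a kinome-wide kinase panel, with the target listed as KIAA1811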
# Sequence of Serine/threonine-protein kinase BRSK1 (Q8TDC3 whole entry): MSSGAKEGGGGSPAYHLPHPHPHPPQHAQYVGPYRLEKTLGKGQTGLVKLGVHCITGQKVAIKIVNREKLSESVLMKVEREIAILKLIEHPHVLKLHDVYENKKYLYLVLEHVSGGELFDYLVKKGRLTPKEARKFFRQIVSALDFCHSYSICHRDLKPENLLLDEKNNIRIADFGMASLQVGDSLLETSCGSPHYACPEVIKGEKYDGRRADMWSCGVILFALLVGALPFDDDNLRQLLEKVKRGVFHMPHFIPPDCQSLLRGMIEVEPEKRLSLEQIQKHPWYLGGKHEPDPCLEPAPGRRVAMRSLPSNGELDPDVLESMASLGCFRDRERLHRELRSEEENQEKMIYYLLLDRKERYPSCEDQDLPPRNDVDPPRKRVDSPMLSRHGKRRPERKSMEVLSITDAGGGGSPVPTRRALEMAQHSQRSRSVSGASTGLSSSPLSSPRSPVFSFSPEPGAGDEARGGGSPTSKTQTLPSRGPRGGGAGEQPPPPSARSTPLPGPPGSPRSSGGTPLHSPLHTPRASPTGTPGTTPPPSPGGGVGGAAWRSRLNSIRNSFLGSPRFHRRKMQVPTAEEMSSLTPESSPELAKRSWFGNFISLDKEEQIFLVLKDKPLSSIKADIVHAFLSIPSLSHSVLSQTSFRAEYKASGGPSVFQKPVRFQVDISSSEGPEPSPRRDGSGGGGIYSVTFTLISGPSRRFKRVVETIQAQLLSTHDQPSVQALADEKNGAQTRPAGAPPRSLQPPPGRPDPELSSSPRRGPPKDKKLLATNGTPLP
# [15] = target: Serine/threonine-protein kinase 3 (Homo sapiens, UniProt Q13188); assay type: functional;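 further: measured as one member of a kinome-wide kinase panel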
# Sequence of Serine/threonine-protein kinase 3 (Q13188 whole entry): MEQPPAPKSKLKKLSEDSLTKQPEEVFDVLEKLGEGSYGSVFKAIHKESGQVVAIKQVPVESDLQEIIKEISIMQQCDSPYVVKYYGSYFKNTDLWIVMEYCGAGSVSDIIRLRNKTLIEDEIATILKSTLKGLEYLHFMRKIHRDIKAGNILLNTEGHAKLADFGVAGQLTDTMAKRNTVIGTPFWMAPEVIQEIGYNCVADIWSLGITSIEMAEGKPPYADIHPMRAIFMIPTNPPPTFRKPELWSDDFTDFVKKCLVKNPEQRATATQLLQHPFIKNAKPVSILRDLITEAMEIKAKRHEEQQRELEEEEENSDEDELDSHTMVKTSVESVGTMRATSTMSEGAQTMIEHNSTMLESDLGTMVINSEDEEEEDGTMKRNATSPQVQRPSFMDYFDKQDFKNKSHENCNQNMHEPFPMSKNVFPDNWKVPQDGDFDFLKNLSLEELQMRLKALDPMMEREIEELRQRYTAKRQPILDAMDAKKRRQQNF
# [16] = target: T1, Insulin-degrading enzyme (Homo sapiens, UniProt P14735); assay: cellular IDE activation of Abeta substrate cleavage – fluorescence polarization, HEK cells, dose response (AID 588439); assay type: functional, cell-based
# T1 sequence (P14735 whole entry): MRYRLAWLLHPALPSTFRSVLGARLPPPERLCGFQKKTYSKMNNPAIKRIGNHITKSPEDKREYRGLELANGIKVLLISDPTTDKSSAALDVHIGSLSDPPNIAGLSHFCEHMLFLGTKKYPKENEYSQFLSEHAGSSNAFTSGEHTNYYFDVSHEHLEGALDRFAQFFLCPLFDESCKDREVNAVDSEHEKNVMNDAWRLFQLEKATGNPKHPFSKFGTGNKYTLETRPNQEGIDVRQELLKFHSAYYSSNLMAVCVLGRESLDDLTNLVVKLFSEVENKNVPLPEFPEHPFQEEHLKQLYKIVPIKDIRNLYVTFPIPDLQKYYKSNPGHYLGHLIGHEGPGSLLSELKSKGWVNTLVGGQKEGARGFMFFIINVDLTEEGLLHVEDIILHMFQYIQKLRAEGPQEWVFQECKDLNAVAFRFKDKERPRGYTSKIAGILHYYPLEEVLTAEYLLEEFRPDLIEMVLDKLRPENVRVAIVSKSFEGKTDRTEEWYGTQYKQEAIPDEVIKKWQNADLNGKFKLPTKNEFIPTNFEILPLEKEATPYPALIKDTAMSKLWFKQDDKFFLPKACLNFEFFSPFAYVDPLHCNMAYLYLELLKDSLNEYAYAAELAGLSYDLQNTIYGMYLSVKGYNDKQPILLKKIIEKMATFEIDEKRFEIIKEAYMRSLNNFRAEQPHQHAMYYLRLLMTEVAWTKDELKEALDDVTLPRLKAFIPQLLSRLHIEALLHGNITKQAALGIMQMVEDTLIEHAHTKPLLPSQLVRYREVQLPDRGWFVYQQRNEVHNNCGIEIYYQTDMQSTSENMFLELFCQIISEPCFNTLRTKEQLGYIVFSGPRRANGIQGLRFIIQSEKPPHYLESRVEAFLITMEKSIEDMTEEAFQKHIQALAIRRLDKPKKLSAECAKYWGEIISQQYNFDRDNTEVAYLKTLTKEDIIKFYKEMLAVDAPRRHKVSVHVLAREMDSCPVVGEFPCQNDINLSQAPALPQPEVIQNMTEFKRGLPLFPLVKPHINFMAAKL
# [17] = tested on: HEK293; assay: membrane integrity loss in HEK cells – cell-based, fluorescence, cytotoxicity control for IDE activator project, dose response (AID 588440); assay type: functional; settings: Homo sapiens;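 further: cytotoxicity by LDH release measuring loss of membrane integrity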
# [18] = target: Tyrosine-protein kinase Lck (Homo sapiens, UniProt P06239); assay type: functional;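 further: lck was assayed as one member of a kinase panel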
# [19] = target: Platelet-derived growth factor receptor beta (Homo sapiens, UniProt P09619); assay type: functional;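 further: value comes from a kinome panel, with PDGFRB tested as one panel member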
# [20] = target: Inhibitor of nuclear factor kappa-B kinase subunit epsilon (Homo sapiens, UniProt Q14164); assay: Navigating the Kinome. Panel member name: IKBKE; assay type: functional
# [21] = target: T2, Caspase-3 (Homo sapiens, UniProt P42574); assay type: functional;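 further: Dose-response selectivity test against caspase-3 for candidate inhibitors of sentrin-specific proteases (SENPs)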
# T2 sequence (P42574 whole entry): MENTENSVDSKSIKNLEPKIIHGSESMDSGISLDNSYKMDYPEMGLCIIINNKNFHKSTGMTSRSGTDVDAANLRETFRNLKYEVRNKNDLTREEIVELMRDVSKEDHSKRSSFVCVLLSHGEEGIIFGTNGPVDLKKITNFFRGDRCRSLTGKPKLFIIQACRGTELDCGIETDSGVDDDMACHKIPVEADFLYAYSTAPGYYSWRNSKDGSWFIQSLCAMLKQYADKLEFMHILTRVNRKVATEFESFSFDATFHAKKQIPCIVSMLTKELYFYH
# [22] = target: T3, Sentrin-specific protease 8 (Homo sapiens, UniProt Q96LD8); assay type: functional;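 further: luminescence read-out of SENP8 inhibition, dose-response confirmation following an ultra-high-throughput screen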
# T3 sequence (Q96LD8 whole entry): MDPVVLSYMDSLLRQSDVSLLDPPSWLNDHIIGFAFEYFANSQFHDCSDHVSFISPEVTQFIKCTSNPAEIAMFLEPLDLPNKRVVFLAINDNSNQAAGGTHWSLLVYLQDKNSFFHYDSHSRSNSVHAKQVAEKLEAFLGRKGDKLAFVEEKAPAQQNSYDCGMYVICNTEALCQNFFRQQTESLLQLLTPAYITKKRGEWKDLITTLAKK
# Sequence of Ribosomal protein S6 kinase beta-1 (P23443 whole entry): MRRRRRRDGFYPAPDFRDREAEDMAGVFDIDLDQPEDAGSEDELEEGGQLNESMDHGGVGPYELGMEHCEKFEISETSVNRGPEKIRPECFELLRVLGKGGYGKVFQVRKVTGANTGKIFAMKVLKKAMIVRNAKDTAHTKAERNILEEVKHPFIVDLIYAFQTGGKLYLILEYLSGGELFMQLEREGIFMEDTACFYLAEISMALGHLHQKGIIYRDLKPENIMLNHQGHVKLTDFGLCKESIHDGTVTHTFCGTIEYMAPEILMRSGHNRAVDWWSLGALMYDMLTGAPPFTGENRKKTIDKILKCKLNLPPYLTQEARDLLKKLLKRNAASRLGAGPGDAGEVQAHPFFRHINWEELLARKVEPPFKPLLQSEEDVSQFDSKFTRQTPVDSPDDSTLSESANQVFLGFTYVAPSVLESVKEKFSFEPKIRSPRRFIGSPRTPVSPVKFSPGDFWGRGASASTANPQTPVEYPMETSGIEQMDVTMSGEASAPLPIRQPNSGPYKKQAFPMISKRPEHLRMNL
structure (smiles),measurement,setting,value
OC1CCC(Nc2nc(Cl)cc(-c3c[nH]c4ncccc34)n2)CC1 (stereo not given),Ki,[1],> 10000 nM (inactive)
same,Ki,[2],100 nM (active)
same,pKi,[2],7
same,Ki,[3],1000 nM (active)
same,pKi,[3],6
same,Ki,[4],1000 nM (active)
same,pKi,[4],6
same,Ki,[5],> 1260 nM (inactive)
same,Ki,[6],158 nM (active)
same,pKi,[6],6.8
same,Ki,[7],126 nM (active)
same,pKi,[7],6.9
same,Ki,[8],31.6 nM (active)
same,pKi,[8],7.5
same,Ki,[9],3160 nM (active)
same,pKi,[9],5.5
same,Ki,[10],5.01 nM (active)
same,pKi,[10],8.3
same,Ki,[11],2000 nM (active)
same,pKi,[11],5.7
same,Ki,[12],398 nM (active)
same,pKi,[12],6.4
same,Ki,[13],6310 nM (active)
same,pKi,[13],5.2
same,Ki,[14],1000 nM (active)
same,pKi,[14],6
same,Ki,[15],50.1 nM (active)
same,pKi,[15],7.3
CCN(CC)CCCC(C)n1c2nc(=O)[nH]c(=O)c-2nc2cc(Cl)ccc21 (stereo not given),EC50,[16],> 54700 nM (inactive)
same,IC50,[17],> 89200 nM (inactive)
COc1cccc(CNC(=O)c2cnc(-c3ccncc3)nc2)c1,Ki,[18],> 6310 nM (inactive)
same,Ki,[19],> 2000 nM (inactive)
same,Ki,[20],> 3160 nM (inactive)
O=C(COC(=O)c1ccc([N+](=O)[O-])s1)Nc1ccc(F)cc1,IC50,[21],8430 nM (active)
same,IC50,[22],4050 nM (active)
